Structures are written as SMILES.

The test deals with T1, GST-Xa-hAAK1 (Homo sapiens, UniProt Q2M2I8).
T1 construct: made in house
T1 sequence (Q2M2I8 whole entry): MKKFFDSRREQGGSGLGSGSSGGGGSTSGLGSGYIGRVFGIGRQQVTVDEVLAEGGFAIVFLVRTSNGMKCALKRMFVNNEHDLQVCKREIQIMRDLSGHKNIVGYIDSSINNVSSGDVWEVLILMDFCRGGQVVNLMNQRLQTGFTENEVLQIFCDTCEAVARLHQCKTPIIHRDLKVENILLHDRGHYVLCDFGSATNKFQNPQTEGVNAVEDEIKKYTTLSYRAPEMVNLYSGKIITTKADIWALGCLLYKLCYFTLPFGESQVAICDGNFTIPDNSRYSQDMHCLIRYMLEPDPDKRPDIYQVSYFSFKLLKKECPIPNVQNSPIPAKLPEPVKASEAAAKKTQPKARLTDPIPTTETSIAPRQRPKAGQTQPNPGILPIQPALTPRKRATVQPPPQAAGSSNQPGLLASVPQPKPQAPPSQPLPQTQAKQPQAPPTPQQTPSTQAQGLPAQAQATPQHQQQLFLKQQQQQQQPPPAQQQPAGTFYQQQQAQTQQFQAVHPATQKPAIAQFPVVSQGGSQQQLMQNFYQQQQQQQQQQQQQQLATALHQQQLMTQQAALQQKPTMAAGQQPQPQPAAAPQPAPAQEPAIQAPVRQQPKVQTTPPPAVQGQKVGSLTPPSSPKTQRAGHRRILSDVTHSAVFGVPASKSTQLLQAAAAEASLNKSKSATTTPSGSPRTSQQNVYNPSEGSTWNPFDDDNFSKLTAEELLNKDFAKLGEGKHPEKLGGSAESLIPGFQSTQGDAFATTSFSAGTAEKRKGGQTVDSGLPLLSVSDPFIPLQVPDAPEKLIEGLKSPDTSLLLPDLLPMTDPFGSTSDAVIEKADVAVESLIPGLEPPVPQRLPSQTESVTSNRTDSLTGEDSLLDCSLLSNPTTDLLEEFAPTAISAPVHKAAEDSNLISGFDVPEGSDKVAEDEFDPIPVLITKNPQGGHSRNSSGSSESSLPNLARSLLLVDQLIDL
As to the kind of experiment: AAK1 Kinase Assay. It is filed as biochemical. The conditions noted are these: IC50 (nM), ATP 22 μM; 3 hours at room temperature; Caliper LabChip 3000. On the procedure: The assays were performed in U-bottom 384-well plates. […] The reactions were initiated by the combination of bacterially expressed, GST-Xa-hAAK1 with substrates and test compounds. The reactions were incubated at room temperature for 3 hours and terminated by adding 60 μl of 35 mM EDTA buffer to each sample. The reactions were analyzed on the Caliper LabChip 3000 (Caliper, Hopkinton, Mass.) by electrophoretic separation of the fluorescent substrate and phosphorylated product. […] Compounds were dissolved at 10 mM in dimethylsulfoxide (DMSO) and evaluated at eleven concentrations. IC50 values were derived by non-linear regression analysis.
Usually IC50 stands for the concentration at which inhibition is half-maximal. For `COc1cc(NC(=O)C(N)CCC(F)(F)F)ccc1-c1cnco1` (stereo not shown) [Example 76, 2-Amino-5,5,5-trifluoro-N-(3-methoxy-4-(oxazol-5-yl)phenyl)pentanamide], the half-maximal inhibitory concentration (IC50) worked out at 110 nM.

In the case of `COc1cc(NC(=O)C(CC(C)C)N2CCC(N)C2)ccc1-c1cnco1` (stereo not shown) [Example 30, 2-(3-Aminopyrrolidin-1-yl)-N-(3-methoxy-4-(oxazol-5-yl)phenyl)-4-methylpentanamide], the half-inhibitory concentration (IC50) was found to be 590 nM.

On to `CCCS(=O)(=O)N[C@H](CC(C)C)C(=O)Nc1ccc(-c2cnco2)c(OC)c1` [Example 70, (R)—N-(3-Methoxy-4-(oxazol-5-yl)phenyl)-4-methyl-2-(propylsulfonamido)pentanamide], for which the 50% inhibitory concentration (IC50) amounted to 310 nM.

Take `COc1cc(NC(=O)[C@H]2C[C@H](OC)CN2)ccc1-c1cnco1` [Example 78, (2R,4S)-4-Methoxy-N-(3-methoxy-4-(oxazol-5-yl)phenyl)pyrrolidine-2-carboxamide]: the IC50 is 2900 nM.

Turning to `CC(C)C[C@@H](N)C(=O)Nc1ccc(-c2ccncc2)cc1` [Example 116, (R)-2-Amino-4-methyl-N-(4-(pyridin-4-yl)phenyl)pentanamide], the half-maximal inhibitory concentration (IC50) stood at 25 nM.

For `COc1cc(NC(=O)C(CC(C)C)N[C@H]2CC[C@H](N)CC2)ccc1-c1cnco1` (stereo partly drawn) [Example 31, 2-(trans-4-Aminocyclohexylamino)-N-(3-methoxy-4-(oxazol-5-yl)phenyl)-4-methylpentanamide], the IC50 turned out to be 7320 nM.

Regarding `CC(C)C[C@@H](N)C(=O)Nc1ccc(-c2cnco2)c(C(F)(F)F)c1` [Example 11, (R)-2-Amino-4-methyl-N-(4-(oxazol-5-yl)-3-(trifluoromethyl)phenyl)pentanamide], the IC50 was determined as 1520 nM.

With `CNc1cc(-c2ccc(NC(=O)C(N)CC(C)C)cc2OC)ccn1` (stereo not shown) [Example 48, 2-Amino-N-(3-methoxy-4-(2-(methylamino)pyridin-4-yl)phenyl)-4-methylpentanamide], the half-maximal inhibitory concentration (IC50) is 450 nM.

For the molecule `COc1cc(NC(=O)[C@H](N)CC2CCC2)ccc1-c1cnco1` [Example 6, (R)-2-Amino-3-cyclobutyl-N-(3-methoxy-4-(oxazol-5-yl)phenyl)propanamide], the half-inhibitory concentration (IC50) is 78 nM.

As for `CC(=O)Nc1cc(-c2ccc(NC(=O)[C@H](N)CC(C)C)cc2)ccn1` [Example 118, (R)—N-(4-(2-Acetamidopyridin-4-yl)phenyl)-2-amino-4-methylpentanamide], the IC50 worked out at 6 nM.

For the molecule `COc1cc(NC(=O)[C@H](N)CC(C)C)ccc1-c1cn[nH]n1` [Example 19, (R)-2-Amino-N-(3-methoxy-4-(2H-1,2,3-triazol-4-yl)phenyl)-4-methylpentanamide], the IC50 was determined as 56 nM.

Consider `CCS(=O)(=O)N[C@H](CC(C)C)C(=O)Nc1ccc(-c2cnco2)c(OC)c1` [Example 69, (R)-2-(Ethylsulfonamido)-N-(3-methoxy-4-(oxazol-5-yl)phenyl)-4-methylpentanamide], for which the IC50 came out at 280 nM.

As to `COc1cc(NC(=O)[C@H](N)CC2CCC2)c(F)cc1-c1cnco1` (stereo in doubt) [Example 94, 2-Amino-3-cyclobutyl-N-(2-fluoro-5-methoxy-4-(oxazol-5-yl)phenyl)propanamide], the IC50 turned out to be 750 nM.

For the molecule `CCOc1cc(NC(=O)[C@H](N)CC(C)C)ccc1-c1cnco1` [Example 17, (R)-2-Amino-N-(3-ethoxy-4-(oxazol-5-yl)phenyl)-4-methylpentanamide], the concentration for half-maximal inhibition (IC50) turned out to be 66 nM.

Turning to `CC(C)C[C@@H](N)C(=O)Nc1ccc(-c2cnco2)c(OC(F)(F)F)c1` [Example 106, (R)-2-Amino-4-methyl-N-(4-(oxazol-5-yl)-3-(trifluoromethoxy)phenyl)pentanamide], the concentration for half-maximal inhibition (IC50) was 160 nM.

As for `COc1cc(NC(=O)[C@H](N)CC(C)C)ccc1-c1cncs1` [Example 21, (R)-2-Amino-N-(3-methoxy-4-(thiazol-5-yl)phenyl)-4-methylpentanamide], the IC50 was determined as 275 nM.

For `CC(C)C[C@@H](N)C(=O)Nc1ccc(-c2cnco2)c(N(C)C)c1` [Example 42, 2-Amino-N-(3-(dimethylamino)-4-(oxazol-5-yl)phenyl)-4-methylpentanamide], the IC50 came out at 860 nM.

Consider `COc1cc(NC(=O)C(CC(C)C)NC2CNC2)ccc1-c1cnco1` (stereo not shown) [Example 32, 2-(Azetidin-3-ylamino)-N-(3-methoxy-4-(oxazol-5-yl)phenyl)-4-methylpentanamide], for which the IC50 worked out at 1140 nM.

For the molecule `COc1cc(NC(=O)[C@@H](CC(C)C)NCc2ccc(Cl)cc2)ccc1-c1cnco1` [Example 60, (R)-2-((4-Chlorobenzyl)amino)-N-(3-methoxy-4-(oxazol-5-yl)phenyl)-4-methylpentanamide], the concentration for half-maximal inhibition (IC50) is 210 nM.

For `COc1cc(NC(=O)C2NCCC2C(C)C)ccc1-c1cnco1` (single isomer, unassigned) [Example 39, 3-Isopropyl-N-(3-methoxy-4-(oxazol-5-yl)phenyl)pyrrolidine-2-carboxamide], the IC50 was determined as 29 nM.

For `CC1CCCCC1C(N)C(=O)Nc1ccc(-c2ccncc2)cc1` (mixture of isomers) [Example 121, 2-Amino-2-(2-methylcyclohexyl)-N-(4-(pyridin-4-yl)phenyl)acetamide], the IC50 amounted to 140 nM.

Turning to `COc1cc(NC(=O)[C@H](N)CC(C)C)ccc1-c1ccncn1` [Example 117, (R)-2-Amino-N-(3-methoxy-4-(pyrimidin-4-yl)phenyl)-4-methylpentanamide], the IC50 stood at 460 nM.

On to `COc1cc(NC(=O)[C@H]2C[C@H](F)CN2)ccc1-c1cnco1` [Example 89, (2R,4S)-4-Fluoro-N-(3-methoxy-4-(oxazol-5-yl)phenyl)pyrrolidine-2-carboxamide], for which the half-maximal inhibitory concentration (IC50) was found to be 2000 nM.

For `COc1cc(NC(=O)[C@@H](CC(C)C)NS(=O)(=O)c2ccccc2)ccc1-c1cnco1` [Example 71, (R)—N-(3-methoxy-4-(oxazol-5-yl)phenyl)-4-methyl-2-(phenylsulfonamido)pentanamide], the IC50 was 400 nM.

Consider `COc1cc(NC(=O)[C@H](N)CC(C)C)c(-c2nncs2)cc1-c1cnco1` [Example 103], for which the IC50 came to 360 nM.

Consider `COc1cc(NC(=O)[C@H](N)CC2CCCCC2)ccc1-c1cnco1` [Example 56, (R)-2-Amino-3-cyclohexyl-N-(3-methoxy-4-(oxazol-5-yl)phenyl)propanamide], for which the IC50 was 950 nM.

With `COc1cc(NC(=O)C2CNC(=O)N2)ccc1-c1cnco1` (stereo not shown) [Example 57, N-(3-Methoxy-4-(oxazol-5-yl)phenyl)-2-oxoimidazolidine-4-carboxamide], the IC50 is 780 nM.

For `CC(C)C[C@@H](N)C(=O)Nc1ccc(-c2ccncc2)cc1-c1ccsc1` [Example 113, (R)-2-Amino-4-methyl-N-(4-(pyridin-4-yl)-2-(thiophen-3-yl)phenyl)pentanamide], the half-maximal inhibitory concentration (IC50) is 500 nM.

For `O=C(Nc1ccc(-c2ccncc2)cc1)C1NCCCC1C(F)(F)F` (mixture of isomers) [Example 120, N-(4-(Pyridin-4-yl)phenyl)-3-(trifluoromethyl)piperidine-2-carboxamide], the IC50 came out at 220 nM.

Regarding `CC[C@@H](C)[C@@H](N)C(=O)Nc1ccc(-c2cnco2)c(OC)c1` [Example 55, (2R,3R)-2-Amino-N-(3-methoxy-4-(oxazol-5-yl)phenyl)-3-methylpentanamide], the IC50 stood at 130 nM.

Take `COc1cc(NC(=O)C(N)CC(C)(C)F)ccc1-c1cnco1` (stereo not shown) [Example 84, 2-Amino-4-fluoro-N-(3-methoxy-4-(oxazol-5-yl)phenyl)-4-methylpentanamide]: the concentration for half-maximal inhibition (IC50) came to 240 nM.

For `CC(C)C[C@@H](N)C(=O)Nc1ccc(-c2cnco2)c(O)c1` [Example 16, (R)-2-Amino-N-(3-hydroxy-4-(oxazol-5-yl)phenyl)-4-methylpentanamide], the half-maximal inhibitory concentration (IC50) was 100 nM.

With `CC(C)C1CCCNC1C(=O)Nc1ccc(-c2ccncc2)cc1` (mixture of isomers) [Example 119, 3-Isopropyl-N-(4-(pyridin-4-yl)phenyl)piperidine-2-carboxamide], the IC50 amounted to 33 nM.

Take `COc1cc(NC(=O)C[C@@H](N)C(C)C)ccc1-c1cnco1` [Example 79, (R)-3-Amino-N-(3-methoxy-4-(oxazol-5-yl)phenyl)-4-methylpentanamide]: the IC50 worked out at 130 nM.

In the case of `COc1cc(NC(=O)[C@H](N)CC(C)C)ccc1-c1nncs1` [Example 23, (R)-2-Amino-N-(3-methoxy-4-(1,3,4-thiadiazol-2-yl)phenyl)-4-methylpentanamide], the 50% inhibitory concentration (IC50) was 5100 nM.

Regarding `CCc1cc(NC(=O)[C@H](N)CC(C)C)ccc1-c1cnco1` [Example 14, (R)-2-Amino-N-(3-ethyl-4-(oxazol-5-yl)phenyl)-4-methylpentanamide], the IC50 came out at 97 nM.

On to `CC(C)C[C@@H](N)C(=O)Nc1ccc(-c2cnco2)c(-c2ccsc2)c1` [Example 15, (R)-2-Amino-4-methyl-N-(4-(oxazol-5-yl)-3-(thiophen-3-yl)phenyl)pentanamide], for which the concentration for half-maximal inhibition (IC50) amounted to 1370 nM.

The values are drawn from US10253027B2, “Aryl lactam kinase inhibitors” (Bristol-Myers Squibb Company, priority 2013, dated 2019).
